From patent US5583218A, “Carbapenem derivatives” (Daiichi Pharmaceutical Co., Ltd., priority 1988, dated 1996)
Values after ≈ are worked out from the molar mass of the structure shown. Read-outs that look alike come from different tables or passages of the source.

What was measured:
[1] = test system: S. aureus 209P; test: Minimum inhibitory concentration against S. aureus 209P; assay type: cell-based; details: Staphylococcus aureus
[2] = test system: Ser. marcescens 10104; test: Minimum inhibitory concentration against Ser. marcescens 10104; assay type: cell-based, Serratia marcescens
[3] = test system: Ent. cloacae 03400; test: Minimum inhibitory concentration against Ent. cloacae 03400; assay type: cell-based; details: Enterobacter cloacae
[4] = test system: Ps. aeruginosa 32233; test: Minimum inhibitory concentration against Ps. aeruginosa 32233; assay type: cell-based; details: Pseudomonas aeruginosa
[5] = test system: E. coli NIHJ; test: Minimum inhibitory concentration against E. coli NIHJ; assay type: cell-based; details: Escherichia coli
[6] = test system: C. difficile GAI-0747; test: Minimum inhibitory concentration against C. difficile GAI-0747; assay type: cell-based, Clostridium difficile; details: Clostridioides difficile, GAI0747
[7] = test system: gram-positive and gram-negative bacteria, obligate anaerobes, strains resistant to penicillins and cepharosporins; details: bacteria resistant to penicillin and cepharosporin antibiotics; background art; cited from earlier work
[8] = Serratia marcescens, Ser. marcescens 10104, read-out: Minimum Inhibitory Concentration (MIC)

MIC [1] [mg/L]	MIC [2, 8] [mg/L]	MIC [3] [mg/L]	MIC [4] [mg/L]	MIC [5] [mg/L]	MIC [6] [mg/L]	Compound	antibacterial activity [7]	MIC ([2]; Serratia marcescens, 10104, read-out: Minimum Inhibitory Concentration (MIC)) [mg/L]
< 0.1	< 0.1	< 0.1	6.25 (≈ 17.9 µM)	< 0.1	3.13 (≈ 8.96 µM)	C[C@@H](O)[C@H]1C(=O)N2C(C(=O)O)=C(SC3Cc4cncn4C3)[C@H](C)[C@H]12 (single isomer, unassigned) [Compound 1]	–	–
–	–	–	–	–	–	C[C@@H](O)[C@H]1C(=O)N2C(C(=O)O)=C(SCCN)C[C@H]12 [Thienamycin]	effective even against bacteria resistant to penicillin and cepharosporin antibiotics	–
< 0.1	< 0.1	< 0.1	6.25 (≈ 17.9 µM)	< 0.1	1.56 (≈ 4.46 µM)	C[C@@H](O)[C@H]1C(=O)N2C(C(=O)O)=C(SC3Cc4nccn4C3)[C@H](C)[C@H]12 (single isomer, unassigned) [Compound 2]	–	–

Compound	MIC [1] [mg/L]	MIC [2, 8] [mg/L]	MIC [3] [mg/L]	MIC [4] [mg/L]	MIC [5] [mg/L]	MIC [6] [mg/L]	antibacterial activity [7]	MIC ([2]; Serratia marcescens, 10104, read-out: Minimum Inhibitory Concentration (MIC)) [mg/L]
C[C@@H](O)[C@H]1C(=O)N2C(C(=O)O)=C(SCCN=CN)C[C@H]12 [MK-0787, reference compound]	< 0.1	–	0.78 (≈ 2.61 µM)	1.56 (≈ 5.21 µM)	0.2 (≈ 0.668 µM)	50 (≈ 167 µM)	–	1.56 (≈ 5.21 µM)
